ChEMBL document CHEMBL1155903, “Cytotoxic calanquinone A from Calanthe arisanensis and its first total synthesis” (Bioorg Med Chem Lett, 2008)
Converted amounts (≈) assume the structure as drawn. The source made the active and inactive calls. The calls are words filed in the database; no cut-off is given here.

Key:
Type in all cases: functional, cell-based
[1] = tested on: KB; test: Cytotoxicity against human KB cells
[2] = tested on: DU-145; test: Cytotoxicity against human DU145 cells up to 20 ug/mL
[3] = tested on: KBVIN; test: Cytotoxicity against human KBVIN cells up to 20 ug/mL
[4] = tested on: A549; test: Cytotoxicity against human A549 cells up to 20 ug/mL
[5] = tested on: KB; test: Cytotoxicity against human KB cells up to 20 ug/mL
[6] = tested on: PC-3; test: Cytotoxicity against human PC3 cells up to 20 ug/mL
[7] = tested on: MCF7; test: Cytotoxicity against human MCF7 cells up to 20 ug/mL
[8] = tested on: HCT-8; test: Cytotoxicity against human HCT8 cells up to 20 ug/mL
[9] = tested on: A549; test: Cytotoxicity against human A549 cells
[10] = tested on: MCF7; test: Cytotoxicity against human MCF7 cells
[11] = tested on: PC-3; test: Cytotoxicity against human PC3 cells
[12] = Cytotoxicity against human KBVIN cells
[13] = tested on: HCT-8; test: Cytotoxicity against human HCT8 cells
[14] = tested on: DU-145; test: Cytotoxicity against human DU145 cells
[15] = Homo sapiens, KB, read-out: EC50
[16] = Homo sapiens, A549, read-out: EC50
[17] = Homo sapiens, PC-3, read-out: EC50
[18] = Homo sapiens, KBVIN, read-out: EC50
[19] = Homo sapiens, DU-145, read-out: EC50

Compound	EC50 [1, 15] [µg/mL]	Activity [2]	Activity [3]	Activity [4]	Activity [5]	Activity [6]	Activity [7]	Activity [8]	EC50 [13] [µg/mL]	further results
COC1=CC(=O)c2ccc3ccccc3c2C1=O [ANNOQUINONE A]	1.6 (≈ 6.72 µM)									
COc1cc(OC)c(OC)c(-c2c(C)cc(OC)c(OC)c2OC)c1C=O		inactive	inactive	inactive	inactive	inactive	inactive	inactive		
COc1cc2ccc3c(OC)cc(OC)c(OC)c3c2c(OC)c1OC		inactive	inactive	inactive	inactive	inactive	inactive	inactive		
COC(=O)C1=C(c2c(C)cc(OC)c(OC)c2OC)C(=O)C(OC)=CC1=O	4.02 (≈ 10.7 µM)								5.85 (≈ 15.5 µM)	EC50 [9, 16]: 6.12 µg/mL (≈ 16.3 µM); EC50 [10]: 6.4 µg/mL (≈ 17 µM); EC50 [11, 17]: 6.09 µg/mL (≈ 16.2 µM); EC50 [12, 18]: 5.48 µg/mL (≈ 14.6 µM); EC50 [14, 19]: 4.74 µg/mL (≈ 12.6 µM)
COC1=CC(=O)C(C=O)=C(c2c(C)cc(OC)c(OC)c2OC)C1=O		inactive	inactive	inactive	inactive	inactive	inactive	inactive		
COC1=CC(=O)c2ccc3cc(OC)c(OC)c(OC)c3c2C1=O	8.08 (≈ 24.6 µM)								15.2 (≈ 46.4 µM)	EC50 [9, 16]: 7.06 µg/mL (≈ 21.5 µM); EC50 [10]: 5.33 µg/mL (≈ 16.2 µM); EC50 [11, 17]: 7.81 µg/mL (≈ 23.8 µM); EC50 [12, 18]: 9.14 µg/mL (≈ 27.8 µM); EC50 [14, 19]: 4.4 µg/mL (≈ 13.4 µM)
COC1=CC(=O)c2ccc3cc(OC)c(OC)c(O)c3c2C1=O [CALANQUINONE A]									0.29 (≈ 0.923 µM)	EC50 ([9]; a549): 0.31 µg/mL (≈ 0.986 µM); EC50 ([11]; pc-3): 0.75 µg/mL (≈ 2.39 µM); EC50 ([12]; kbvin): 0.24 µg/mL (≈ 0.764 µM); EC50 ([1]; kb): 0.3 µg/mL (≈ 0.955 µM); EC50 ([14]; du-145): 0.48 µg/mL (≈ 1.53 µM)
